The structures appear in SMILES notation.

This experiment relates to MV-4-11 cells. Put plainly: Gene expression microarray analysis (Affymetrix PrimeView) and GSEA. The experiment is classed as cell-based, human. Also on record: RFU PODN (11730768_x_at) / Fold change /veh PODN (11730768_x_at) / RFU LINC00158 (11744669_a_at) / Fold change /veh LINC00158 (11744669_a_at) / RFU DUSP10 (11751237_a_at) / Fold change /veh DUSP10 (11751237_a_at) / RFU ID3 (11757404_x_at) / Fold change /veh ID3 (11757404_x_at) / RFU PLEKHG5 (11737974_s_at) / Fold change /veh PLEKHG5 (11737974_s_at) / RFU LRRC4B (11730491_at) / Fold change /veh LRRC4B (11730491_at) / RFU GIMAP4 (11747438_a_at) / Fold change /veh GIMAP4 (11747438_a_at) / RFU KRT8 (11758183_x_at) / Fold change /veh KRT8 (11758183_x_at) / RFU CNN1 (11734310_a_at) / Fold change /veh CNN1 (11734310_a_at) / RFU VPS37D (11726825_at) / Fold change /veh VPS37D (11726825_at) / RFU C10orf10 (11716522_x_at) / Fold change /veh C10orf10 (11716522_x_at) / RFU KIR2DL2 /// KIR2DL4 /// KIR2DL5A /// KIR2DL5B /// KIR2DS1 /// KIR2DS2 /// KIR2DS3 /// KIR2DS4 /// KIR3DL3 /// KIR3DL3 /// KIR3DS1 (11738374_at) / Fold change /veh KIR2DL2 /// KIR2DL4 /// KIR2DL5A /// KIR2DL5B /// KIR2DS1 /// KIR2DS2 /// KIR2DS3 /// KIR2DS4 /// KIR3DL3 /// KIR3DL3 /// KIR3DS1 (11738374_at) / RFU C1QL1 (11718748_at) / Fold change /veh C1QL1 (11718748_at) / RFU TMPRSS4 (11747572_a_at) / Fold change /veh TMPRSS4 (11747572_a_at) / RFU HAMP (11756126_x_at) / Fold change /veh HAMP (11756126_x_at) / RFU RNFT2 (11725882_a_at) / Fold change /veh RNFT2 (11725882_a_at) / RFU NR4A2 (11747474_a_at) / Fold change /veh NR4A2 (11747474_a_at) / RFU ABCC12 (11746883_a_at) / Fold change /veh ABCC12 (11746883_a_at) / RFU TMEM136 (11760407_x_at) / Fold change /veh TMEM136 (11760407_x_at) / RFU CLDN22 /// WWC2 (11732394_at) / Fold change /veh CLDN22 /// WWC2 (11732394_at) / RFU HLA-DPB1 (11760878_x_at) / Fold change /veh HLA-DPB1 (11760878_x_at) / RFU SPINT1 (11716480_a_at) / Fold change /veh SPINT1 (11716480_a_at) / RFU GAP43 (11754022_s_at) / Fold change /veh GAP43 (11754022_s_at) / RFU A4GNT (11735810_at) / Fold change /veh A4GNT (11735810_at) / RFU PRB3 (11715151_x_at) / Fold change /veh PRB3 (11715151_x_at) / RFU TUBB4B (11761932_at) / Fold change /veh TUBB4B (11761932_at) / RFU CAPN14 (11732068_a_at) / Fold change /veh CAPN14 (11732068_a_at) / RFU TMCC2 (11721928_a_at) / Fold change /veh TMCC2 (11721928_a_at) / RFU IRGQ (11745062_a_at) / Fold change /veh IRGQ (11745062_a_at) / RFU FAM174B (11720279_a_at) / Fold change /veh FAM174B (11720279_a_at) / RFU TMPRSS4 (11748680_a_at) / Fold change /veh TMPRSS4 (11748680_a_at) / RFU FAM212B (11763350_a_at) / Fold change /veh FAM212B (11763350_a_at) / RFU PLEKHG5 (11743358_a_at) / Fold change /veh PLEKHG5 (11743358_a_at) / RFU ZSCAN30 (11745921_a_at) / Fold change /veh ZSCAN30 (11745921_a_at) / RFU CMKLR1 (11741424_a_at) / Fold change /veh CMKLR1 (11741424_a_at) / RFU LOC101060620 /// MAPK8IP1 (11723275_at) / Fold change /veh LOC101060620 /// MAPK8IP1 (11723275_at) / RFU SPTSSB (11747773_x_at) / Fold change /veh SPTSSB (11747773_x_at) / RFU PRSS12 (11739890_at) / Fold change /veh PRSS12 (11739890_at) / RFU BIN1 (11741810_x_at) / Fold change /veh BIN1 (11741810_x_at) / RFU WNT11 (11732464_a_at) / Fold change /veh WNT11 (11732464_a_at) / RFU C10orf10 (11716521_a_at) / Fold change /veh C10orf10 (11716521_a_at) / RFU C5orf56 (11738089_at) / Fold change /veh C5orf56 (11738089_at) / RFU CYB561 (11721691_x_at) / Fold change /veh CYB561 (11721691_x_at) / RFU ANKRD19P (11752326_a_at) / Fold change /veh ANKRD19P (11752326_a_at) / RFU OR2T12 /// OR2T33 /// OR2T8 (11738714_s_at) / Fold change /veh OR2T12 /// OR2T33 /// OR2T8 (11738714_s_at) / RFU VCAN (11748164_a_at) / Fold change /veh VCAN (11748164_a_at) / RFU JSRP1 (11732532_at) / Fold change /veh JSRP1 (11732532_at) / RFU KRTAP10-11 (11738290_x_at) / Fold change /veh KRTAP10-11 (11738290_x_at) / RFU MYO3A (11730013_a_at) / Fold change /veh MYO3A (11730013_a_at) / RFU EBF3 (11725865_a_at) / Fold change /veh EBF3 (11725865_a_at) / RFU CAMK2N1 (11719241_x_at) / Fold change /veh CAMK2N1 (11719241_x_at) / RFU C5orf56 (11738088_a_at) / Fold change /veh C5orf56 (11738088_a_at) / RFU OLFML3 (11715873_a_at) / Fold change /veh OLFML3 (11715873_a_at) / RFU LOC100653217 /// NTM (11731650_a_at) / Fold change /veh LOC100653217 /// NTM (11731650_a_at) / RFU MAPK11 (11762145_a_at) / Fold change /veh MAPK11 (11762145_a_at) / RFU FIZ1 (11724087_x_at) / Fold change /veh FIZ1 (11724087_x_at) / RFU OASL (11726364_x_at) / Fold change /veh OASL (11726364_x_at) / RFU SOX15 (11748057_x_at) / Fold change /veh SOX15 (11748057_x_at) / RFU CD79A (11719716_a_at) / Fold change /veh CD79A (11719716_a_at) / RFU HIST1H1D (11736915_at) / Fold change /veh HIST1H1D (11736915_at) / RFU CASKIN2 (11723855_a_at) / Fold change /veh CASKIN2 (11723855_a_at) / RFU LOC730098 (11760151_x_at) / Fold change /veh LOC730098 (11760151_x_at) / RFU OR4N2 (11742367_at) / Fold change /veh OR4N2 (11742367_at) / RFU PRRT2 (11749266_a_at) / Fold change /veh PRRT2 (11749266_a_at) / RFU SNX32 (11753110_a_at) / Fold change /veh SNX32 (11753110_a_at) / RFU CDHR5 (11726645_a_at) / Fold change /veh CDHR5 (11726645_a_at) / RFU RCAN1 (11760418_a_at) / Fold change /veh RCAN1 (11760418_a_at) / RFU FAM167A (11723789_a_at) / Fold change /veh FAM167A (11723789_a_at) / RFU FAM26E (11764081_at) / Fold change /veh FAM26E (11764081_at) / RFU ISYNA1 (11749810_s_at) / Fold change /veh ISYNA1 (11749810_s_at) / RFU ACY1 (11761880_at) / Fold change /veh ACY1 (11761880_at) / RFU 11764098_at / Fold change /veh 11764098_at / RFU SAMD14 (11745864_x_at) / Fold change /veh SAMD14 (11745864_x_at) / RFU NPB (11741838_a_at) / Fold change /veh NPB (11741838_a_at) / RFU TMPRSS6 (11731388_a_at) / Fold change /veh TMPRSS6 (11731388_a_at) / RFU KRTAP10-2 (11738614_at) / Fold change /veh KRTAP10-2 (11738614_at) / RFU ARHGAP8 /// PRR5-ARHGAP8 (11727945_x_at) / Fold change /veh ARHGAP8 /// PRR5-ARHGAP8 (11727945_x_at) / RFU KRTAP5-7 /// NADSYN1 (11734609_at) / Fold change /veh KRTAP5-7 /// NADSYN1 (11734609_at) / RFU RASL12 (11751679_a_at) / Fold change /veh RASL12 (11751679_a_at) / RFU CDKN2B (11736163_a_at) / Fold change /veh CDKN2B (11736163_a_at) / RFU PRF1 (11729649_at) / Fold change /veh PRF1 (11729649_at) / RFU, ZNF638 /// ZNF638-IT1 / Fold change vs veh, ZNF638 /// ZNF638-IT1 / RFU, PANK3 / Fold change vs veh, PANK3 / RFU, SH3YL1 / Fold change vs veh, SH3YL1 / RFU, ZEB2 / Fold change vs veh, ZEB2 / RFU, NRIP1 / Fold change vs veh, NRIP1 / RFU, PTTG1IP / Fold change vs veh, PTTG1IP / RFU, CAPN2 / Fold change vs veh, CAPN2 / RFU, MED14 / Fold change vs veh, MED14 / RFU, SNORA58 / Fold change vs veh, SNORA58 / RFU, C1orf63 / Fold change vs veh, C1orf63 / RFU, LRRFIP1 / Fold change vs veh, LRRFIP1 / RFU, NDUFAF7 / Fold change vs veh, NDUFAF7 / RFU, SLC12A2 / Fold change vs veh, SLC12A2 / RFU, IBTK / Fold change vs veh, IBTK / RFU, ESF1 / Fold change vs veh, ESF1 / Fold change vs veh, TMEM50B / RFU, TAOK1 / Fold change vs veh, TAOK1 / RFU, ACBD3 / Fold change vs veh, ACBD3 / RFU, TMA16 / Fold change vs veh, TMA16 / RFU, RWDD3 / Fold change vs veh, RWDD3 / RFU, BCAT1 / Fold change vs veh, BCAT1 / RFU, EDEM3 / Fold change vs veh, EDEM3 / RFU, TMEM33 / Fold change vs veh, TMEM33 / RFU, WDR75 / Fold change vs veh, WDR75 / RFU, AHCTF1 / Fold change vs veh, AHCTF1 / RFU, TFRC / Fold change vs veh, TFRC / RFU, ZDHHC17 / Fold change vs veh, ZDHHC17 / RFU, NOM1 / Fold change vs veh, NOM1 / RFU, ARL8B / Fold change vs veh, ARL8B / RFU, ZBTB11 / Fold change vs veh, ZBTB11 / RFU, TAMM41 / Fold change vs veh, TAMM41 / RFU, KIAA1704 /// LOC100996395 / Fold change vs veh, KIAA1704 /// LOC100996395 / RFU, ING1 / Fold change vs veh, ING1 / RFU, TRMT61B / Fold change vs veh, TRMT61B / RFU, FUBP3 / Fold change vs veh, FUBP3 / RFU, TP53 / Fold change vs veh, TP53 / RFU, TNKS2 / Fold change vs veh, TNKS2 / RFU, ZFP14 / Fold change vs veh, ZFP14 / RFU, ACTR2 / Fold change vs veh, ACTR2 / RFU, PPP3R1 / Fold change vs veh, PPP3R1 / RFU, PIK3R1 / Fold change vs veh, PIK3R1 / RFU, HNRNPA1 / Fold change vs veh, HNRNPA1 / RFU, RNF170 / Fold change vs veh, RNF170 / RFU, ZNF28 / Fold change vs veh, ZNF28 / RFU, RNGTT / Fold change vs veh, RNGTT / RFU, OGT / Fold change vs veh, OGT / RFU, BRD1 / Fold change vs veh, BRD1 / RFU, MARS / Fold change vs veh, MARS / RFU, ZNF655 / Fold change vs veh, ZNF655 / RFU, FAHD1 / Fold change vs veh, FAHD1 / RFU, BDP1 / Fold change vs veh, BDP1 / RFU, LRRCC1 / Fold change vs veh, LRRCC1 / RFU, ARID1A / Fold change vs veh, ARID1A / RFU, ZNF146 / Fold change vs veh, ZNF146 / RFU, ZNF330 / Fold change vs veh, ZNF330 / RFU, GPN3 / Fold change vs veh, GPN3 / RFU, C9orf123 / Fold change vs veh, C9orf123 / RFU, N4BP2L2 / Fold change vs veh, N4BP2L2 / RFU, ARFIP1 / Fold change vs veh, ARFIP1 / RFU, FAM179B / Fold change vs veh, FAM179B / RFU, BCL10 / Fold change vs veh, BCL10 / RFU, UHRF1BP1L / Fold change vs veh, UHRF1BP1L / RFU, BET1 / Fold change vs veh, BET1 / RFU, CNOT2 / Fold change vs veh, CNOT2 / RFU, ZNF268 / Fold change vs veh, ZNF268 / Fold change vs veh, ZNF507 / RFU, DGCR2 / Fold change vs veh, DGCR2 / RFU, WDSUB1 / Fold change vs veh, WDSUB1 / Fold change vs veh, HSP90B1 /// MIR3652 / RFU, ADSS / Fold change vs veh, ADSS / RFU, GK / Fold change vs veh, GK / RFU, ZNF148 / Fold change vs veh, ZNF148 / RFU, TAF9 / Fold change vs veh, TAF9 / RFU, SLC1A5 / Fold change vs veh, SLC1A5 / RFU, SLMO2 / Fold change vs veh, SLMO2 / RFU, ABCC4 / Fold change vs veh, ABCC4 / RFU, LOC101060439 /// RAP1B / Fold change vs veh, LOC101060439 /// RAP1B / RFU, RFX7 / Fold change vs veh, RFX7 / RFU, GTPBP10 / Fold change vs veh, GTPBP10 / RFU, CNEP1R1 / Fold change vs veh, CNEP1R1 / RFU, BIVM-ERCC5 /// ERCC5 / Fold change vs veh, BIVM-ERCC5 /// ERCC5 / RFU, ILF3 / Fold change vs veh, ILF3 / RFU 11762660_at / Fold change /veh 11762660_at / RFU VCAN (11757783_s_at) / Fold change /veh VCAN (11757783_s_at) / RFU DDX43 (11728927_at) / Fold change /veh DDX43 (11728927_at) / RFU KRT8 (11758188_x_at) / Fold change /veh KRT8 (11758188_x_at) / RFU NKD1 (11759106_at) / Fold change /veh NKD1 (11759106_at) / RFU SRD5A1 (11742802_a_at) / Fold change /veh SRD5A1 (11742802_a_at) / RFU TPSAB1 /// TPSB2 (11721975_s_at) / Fold change /veh TPSAB1 /// TPSB2 (11721975_s_at) / RFU GSTM3 (11746129_a_at) / Fold change /veh GSTM3 (11746129_a_at) / RFU IL23R (11737362_x_at) / Fold change /veh IL23R (11737362_x_at) / RFU TMEM51 (11727254_a_at) / Fold change /veh TMEM51 (11727254_a_at) / RFU PIWIL2 (11732686_x_at) / Fold change /veh PIWIL2 (11732686_x_at) / RFU ORM1 (11744905_x_at) / Fold change /veh ORM1 (11744905_x_at) / RFU CCDC152 (11743942_at) / Fold change /veh CCDC152 (11743942_at) / RFU ECM1 (11717891_a_at) / Fold change /veh ECM1 (11717891_a_at) / RFU IL23R (11748794_a_at) / Fold change /veh IL23R (11748794_a_at) / RFU TNFAIP8L3 (11732012_x_at) / Fold change /veh TNFAIP8L3 (11732012_x_at) / RFU MBOAT4 (11741988_at) / Fold change /veh MBOAT4 (11741988_at) / RFU 11764193_at / Fold change /veh 11764193_at / RFU TMEM53 (11763286_at) / Fold change /veh TMEM53 (11763286_at) / RFU MAGEB2 (11727129_at) / Fold change /veh MAGEB2 (11727129_at) / RFU TMEM200A (11744735_a_at) / Fold change /veh TMEM200A (11744735_a_at) / RFU CCDC152 (11751479_a_at) / Fold change /veh CCDC152 (11751479_a_at) / RFU FAM211A (11726209_a_at) / Fold change /veh FAM211A (11726209_a_at) / RFU RGS16 (11746705_a_at) / Fold change /veh RGS16 (11746705_a_at) / RFU VCAN (11755009_s_at) / Fold change /veh VCAN (11755009_s_at) / RFU RHOB (11743442_s_at) / Fold change /veh RHOB (11743442_s_at) / RFU RGS16 (11720943_a_at) / Fold change /veh RGS16 (11720943_a_at) / RFU RGS16 (11720944_at) / Fold change /veh RGS16 (11720944_at) / RFU, VPS4B / Fold change vs veh, VPS4B / RFU, CREB1 / Fold change vs veh, CREB1 / RFU, DNAJC13 / Fold change vs veh, DNAJC13 / RFU, GNAQ / Fold change vs veh, GNAQ / RFU, CDK5R1 / Fold change vs veh, CDK5R1 / RFU, ZRANB3 / Fold change vs veh, ZRANB3 / RFU, CUL4A / Fold change vs veh, CUL4A / RFU, CCNY / Fold change vs veh, CCNY / RFU, UFL1 / Fold change vs veh, UFL1 / RFU, COG3 / Fold change vs veh, COG3 / RFU, DIAPH2 / Fold change vs veh, DIAPH2 / RFU, SKA2 / Fold change vs veh, SKA2 / RFU, AFF3 / Fold change vs veh, AFF3 / RFU, LMF1 / Fold change vs veh, LMF1 / RFU, IPO11 / Fold change vs veh, IPO11 / RFU, DFFB / Fold change vs veh, DFFB / RFU, FOXP1 / Fold change vs veh, FOXP1 / RFU, CARD8 / Fold change vs veh, CARD8 / RFU, STRN3 / Fold change vs veh, STRN3 / RFU, ADK / Fold change vs veh, ADK / RFU, RASSF2 / Fold change vs veh, RASSF2 / RFU, WIPF1 / Fold change vs veh, WIPF1 / RFU, LARP1B / Fold change vs veh, LARP1B / RFU, RASA1 / Fold change vs veh, RASA1 / RFU, RB1 / Fold change vs veh, RB1 / RFU, PPFIA1 / Fold change vs veh, PPFIA1 / RFU, MAT2A / Fold change vs veh, MAT2A / RFU, CCT5 / Fold change vs veh, CCT5 / RFU, WDR92 / Fold change vs veh, WDR92 / RFU, CUX1 / Fold change vs veh, CUX1 / RFU, TTC7A / Fold change vs veh, TTC7A / RFU, TMEM135 / Fold change vs veh, TMEM135 / RFU, DEPTOR / Fold change vs veh, DEPTOR / RFU, CPM / Fold change vs veh, CPM / RFU, DNAJB6 / Fold change vs veh, DNAJB6 / RFU, CACNA2D3 / Fold change vs veh, CACNA2D3 / RFU, DTX4 / Fold change vs veh, DTX4 / RFU, TFCP2 / Fold change vs veh, TFCP2 / RFU, GMCL1 /// GMCL1P1 / Fold change vs veh, GMCL1 /// GMCL1P1 / RFU, AEBP2 / Fold change vs veh, AEBP2 / RFU, SNHG1 /// SNORD22 /// SNORD25 /// SNORD26 /// SNORD27 /// SNORD28 /// SNORD29 /// SNORD31 / Fold change vs veh, SNHG1 /// SNORD22 /// SNORD25 /// SNORD26 /// SNORD27 /// SNORD28 /// SNORD29 /// SNORD31 / Fold change (Aza/veh), C12orf56 (ProbeSet 11735607_a_at) / Fold change (ACY-1035/veh), C12orf56 (ProbeSet 11735607_a_at) / Fold change (Aza/veh), FGFR1OP (ProbeSet 11751329_s_at) / Fold change (ACY-1035/veh), FGFR1OP (ProbeSet 11751329_s_at) / Fold change (Aza/veh), VPS36 (ProbeSet 11739960_a_at) / Fold change (ACY-1035/veh), VPS36 (ProbeSet 11739960_a_at) / RFU SYPL1 (11715823_x_at) / Fold change /veh SYPL1 (11715823_x_at) / RFU IGFBP7 (11715501_s_at) / Fold change /veh IGFBP7 (11715501_s_at) / RFU REEP3 (11722064_at) / Fold change /veh REEP3 (11722064_at) / RFU IGLL1 (11728026_x_at) / Fold change /veh IGLL1 (11728026_x_at): dose or concentration left out as unconfirmed. As to conditions: ProbeSet 11758397_s_at; LIST B.

Turning to `Nc1ncn([C@@H]2O[C@H](CO)[C@@H](O)[C@H]2O)c(=O)n1` [azacitidine], the “Fold change vs veh, RNF170” value is 1.07.

Source of the values: PMC5218480 (PLoS ONE, 2017).
